# Test results as given in patent US9790229B2, “Bruton's tyrosine kinase inhibitors” (priority 2009, dated 2017).
# Like-named read-outs stand apart in the source and are kept apart here.
# Biological target: BTK (Homo sapiens (Human), UniProt Q06187)
# Assay: In vitro BTK kinase assay: BTK-POLYGAT-LS ASSAY
# [1] = read-out: IC50 (10 uM ATP), 10 uM ATP, in vitro Btk kinase assay, Example 41
# Sequence of BTK (Q06187 whole entry): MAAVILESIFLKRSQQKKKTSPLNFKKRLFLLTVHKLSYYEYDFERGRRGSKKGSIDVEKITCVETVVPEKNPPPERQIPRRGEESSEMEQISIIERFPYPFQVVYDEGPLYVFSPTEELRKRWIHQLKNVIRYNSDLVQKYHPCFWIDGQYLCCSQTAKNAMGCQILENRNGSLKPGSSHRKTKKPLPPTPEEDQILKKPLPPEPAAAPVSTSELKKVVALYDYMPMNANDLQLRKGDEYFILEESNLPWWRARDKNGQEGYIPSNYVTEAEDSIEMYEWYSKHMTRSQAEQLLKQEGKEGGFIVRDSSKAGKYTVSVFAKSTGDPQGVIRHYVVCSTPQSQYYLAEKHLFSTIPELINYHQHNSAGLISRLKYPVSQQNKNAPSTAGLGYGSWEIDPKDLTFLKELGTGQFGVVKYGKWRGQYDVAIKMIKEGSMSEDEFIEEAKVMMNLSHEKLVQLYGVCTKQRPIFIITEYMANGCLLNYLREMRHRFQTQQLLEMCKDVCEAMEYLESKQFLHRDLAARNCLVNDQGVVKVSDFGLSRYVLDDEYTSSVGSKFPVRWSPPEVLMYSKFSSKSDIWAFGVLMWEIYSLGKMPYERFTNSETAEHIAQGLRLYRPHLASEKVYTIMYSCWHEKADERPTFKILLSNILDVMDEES
Structure (SMILES),IC50,IC50 [1]
"CC(=O)NCc1ccccc1NC(=O)Nc1cccc(C2CCCN(c3ncnc4[nH]ccc34)C2)c1 (stereo not drawn) [Cmpd 62, N-(2-(3-(3-(1-(7H-pyrrolo[2,3-d]pyrimidin-4-yl)piperidin-3-yl)phenyl)ureido)benzyl)acetamide]",1 to 10 µM,
"CN(C)Cc1ccccc1NC(=O)Nc1cccc(C2CCCN(c3ncnc4[nH]ccc34)C2)c1 (stereo not drawn) [Cmpd 63, 1-(3-(1-(7H-pyrrolo[2,3-d]pyrimidin-4-yl)piperidin-3-yl)phenyl)-3-(2-((dimethylamino)methyl)phenyl)urea]",1 to 10 µM,
"CS(=O)(=O)c1ccccc1NC(=O)Nc1cccc(C2CCCN(c3ncnc4[nH]ccc34)C2)c1 (stereo not drawn) [Cmpd 64, 1-(3-(1-(7H-pyrrolo[2,3-d]pyrimidin-4-yl)piperidin-3-yl)phenyl)-3-(2-(methylsulfonyl)phenyl)urea]",1 to 10 µM,
"N#Cc1ccccc1NC(=O)Nc1cccc(C2CCCN(c3ncnc4[nH]ccc34)C2)c1 (stereo not drawn) [Cmpd 65, 1-(3-(1-(7H-pyrrolo[2,3-d]pyrimidin-4-yl)piperidin-3-yl)phenyl)-3-(2-cyanophenyl)urea]",,> 10 µM
"Cc1cc(NC(=O)Nc2cccc(C3CCCN(c4ncnc5[nH]ccc45)C3)c2)on1 (stereo not drawn) [Cmpd 66, 1-(3-(1-(7H-pyrrolo[2,3-d]pyrimidin-4-yl)piperidin-3-yl)phenyl)-3-(3-methylisoxazol-5-yl)urea]",1 to 10 µM,
"S=C(Nc1ccccc1)Nc1cccc(C2CCCN(c3ncnc4[nH]ccc34)C2)c1 (stereo not drawn) [Cmpd 67, 1-(3-(1-(7H-pyrrolo[2,3-d]pyrimidin-4-yl)piperidin-3-yl)phenyl)-3-phenylthiourea]",,> 10 µM
"O=S(=O)(Nc1cccc(C2CCCN(c3ncnc4[nH]ccc34)C2)c1)c1ccccc1 (stereo not drawn) [Cmpd 68, N-(3-(1-(7H-pyrrolo[2,3-d]pyrimidin-4-yl)piperidin-3-yl)phenyl)benzenesulfonamide]",,> 10 µM
"O=c1c(Nc2ccccc2)c(Nc2cccc(C3CCCN(c4ncnc5[nH]ccc45)C3)c2)c1=O (stereo not drawn) [Cmpd 69, 3-(3-(1-(7H-pyrrolo[2,3-d]pyrimidin-4-yl)piperidin-3-yl)phenylamino)-4-(phenylamino)cyclobut-3-ene-1,2-dione]",,> 10 µM
"O=c1c(Nc2ccc(Cl)cc2)c(Nc2cccc(C3CCCN(c4ncnc5[nH]ccc45)C3)c2)c1=O (stereo not drawn) [Cmpd 70, 3-(3-(1-(7H-pyrrolo[2,3-d]pyrimidin-4-yl)piperidin-3-yl)phenylamino)-4-(4-chlorophenylamino)cyclobut-3-ene-1,2-dione]",,> 10 µM
"O=c1c(Nc2cccc(Cl)c2)c(Nc2cccc(C3CCCN(c4ncnc5[nH]ccc45)C3)c2)c1=O (stereo not drawn) [Cmpd 71, 3-(3-(1-(7H-pyrrolo[2,3-d]pyrimidin-4-yl)piperidin-3-yl)phenylamino)-4-(3-chlorophenylamino)cyclobut-3-ene-1,2-dione]",,> 10 µM
"CNc1c(Nc2cccc(C3CCCN(c4ncnc5[nH]ccc45)C3)c2)c(=O)c1=O (stereo not drawn) [Cmpd 72, 3-(3-(1-(7H-pyrrolo[2,3-d]pyrimidin-4-yl)piperidin-3-yl)phenylamino)-4-(methylamino)cyclobut-3-ene-1,2-dione]",,> 10 µM
"CC(C)(C)Nc1c(Nc2cccc(C3CCCN(c4ncnc5[nH]ccc45)C3)c2)c(=O)c1=O (stereo not drawn) [Cmpd 73, 3-(3-(1-(7H-pyrrolo[2,3-d]pyrimidin-4-yl)piperidin-3-yl)phenylamino)-4-(tert-butylamino)cyclobut-3-ene-1,2-dione]",,> 10 µM
N#C/N=C(\Nc1cccc(C2CCCN(c3ncnc4[nH]ccc34)C2)c1)NC1CCCCC1 (stereo not drawn) [Cmpd 75],1 to 10 µM,
"N#C/N=C(/NCC1CCCCC1)Nc1cccc(C2CCCN(c3ncnc4[nH]ccc34)C2)c1 (stereo not drawn) [Cmpd 76, (E)-1-(3-(1-(7H-pyrrolo[2,3-d]pyrimidin-4-yl)piperidin-3-yl)phenyl)-2-cyano-3-(cyclohexylmethyl)guanidine]",,> 10 µM
"CN/C(=N/C#N)Nc1cccc(C2CCCN(c3ncnc4[nH]ccc34)C2)c1 (stereo not drawn) [Cmpd 77, (E)-1-(3-(1-(7H-pyrrolo[2,3-d]pyrimidin-4-yl)piperidin-3-yl)phenyl)-2-cyano-3-methylguanidine]",,> 10 µM
"CC(C)(C)N/C(=N/C#N)Nc1cccc(C2CCCN(c3ncnc4[nH]ccc34)C2)c1 (stereo not drawn) [Cmpd 78, (Z)-1-(3-(1-(7H-pyrrolo[2,3-d]pyrimidin-4-yl)piperidin-3-yl)phenyl)-3-tert-butyl-2-cyanoguanidine]",,> 10 µM
"Cc1ccc(NC(=O)Nc2ccccc2)cc1C1CCCN(c2ncnc3[nH]ccc23)C1 (stereo not drawn) [Cmpd 79, 1-(3-(1-(7H-pyrrolo[2,3-d]pyrimidin-4-yl)piperidin-3-yl)-4-methylphenyl)-3-phenylurea]",,> 10 µM
"Cc1ccc(NC(=O)c2ccccc2)cc1C1CCCN(c2ncnc3[nH]ccc23)C1 (stereo not drawn) [Cmpd 80, N-(3-(1-(7H-pyrrolo[2,3-d]pyrimidin-4-yl)piperidin-3-yl)-4-methylphenyl)benzamide]",,> 10 µM
"Cc1ccc(C2CCCN(c3ncnc4[nH]ccc34)C2)cc1NC(=O)Nc1ccccc1 (stereo not drawn) [Cmpd 81, 1-(5-(1-(7H-pyrrolo[2,3-d]pyrimidin-4-yl)piperidin-3-yl)-2-methylphenyl)-3-phenylurea]",,> 10 µM
"Cc1ccc(C2CCCN(c3ncnc4[nH]ccc34)C2)cc1NC(=O)c1ccccc1 (stereo not drawn) [Cmpd 82, N-(5-(1-(7H-pyrrolo[2,3-d]pyrimidin-4-yl)piperidin-3-yl)-2-methylphenyl)benzamide]",,> 10 µM
"O=C(Nc1ccccc1)Nc1cc(C2CCCN(c3ncnc4[nH]ccc34)C2)cc(C(F)(F)F)c1 (stereo not drawn) [Cmpd 83, 1-(3-(1-(7H-pyrrolo[2,3-d]pyrimidin-4-yl)piperidin-3-yl)-5-(trifluoromethyl)phenyl)-3-phenylurea]",,> 10 µM
"O=C(Nc1cc(C2CCCN(c3ncnc4[nH]ccc34)C2)cc(C(F)(F)F)c1)c1ccccc1 (stereo not drawn) [Cmpd 84, N-(3-(1-(7H-pyrrolo[2,3-d]pyrimidin-4-yl)piperidin-3-yl)-5-(trifluoromethyl)phenyl)benzamide]",,> 10 µM
"O=C(Nc1cc(C2CCCN(c3ncnc4[nH]ccc34)C2)ccc1OC(F)(F)F)c1ccccc1 (stereo not drawn) [Cmpd 85, N-(5-(1-(7H-pyrrolo[2,3-d]pyrimidin-4-yl)piperidin-3-yl)-2-(trifluoromethoxy)phenyl)benzamide]",0.1 to 0.999 µM,
"O=C(Nc1cc(C2CCCN(c3ncnc4[nH]ccc34)C2)ccc1OC(F)(F)F)c1ccccc1Cl (stereo not drawn) [Cmpd 86, N-(5-(1-(7H-pyrrolo[2,3-d]pyrimidin-4-yl)piperidin-3-yl)-2-(trifluoromethoxy)phenyl)-2-chlorobenzamide]",0.1 to 0.999 µM,
"O=C(Nc1cc(C2CCCN(c3ncnc4[nH]ccc34)C2)ccc1OC(F)(F)F)C1CCCCC1 (stereo not drawn) [Cmpd 87, N-(5-(1-(7H-pyrrolo[2,3-d]pyrimidin-4-yl)piperidin-3-yl)-2-(trifluoromethoxy)phenyl)cyclohexanecarboxamide]",0.1 to 0.999 µM,
"O=C(Nc1cc(C2CCCN(c3ncnc4[nH]ccc34)C2)ccc1OC(F)(F)F)c1c(Cl)cccc1Cl (stereo not drawn) [Cmpd 88, N-(5-(1-(7H-pyrrolo[2,3-d]pyrimidin-4-yl)piperidin-3-yl)-2-(trifluoromethoxy)phenyl)-2,6-dichlorobenzamide]",1 to 10 µM,
"O=C(Nc1cc(C2CCCN(c3ncnc4[nH]ccc34)C2)ccc1OC(F)(F)F)c1ccccc1F (stereo not drawn) [Cmpd 89, N-(5-(1-(7H-pyrrolo[2,3-d]pyrimidin-4-yl)piperidin-3-yl)-2-(trifluoromethoxy)phenyl)-2-fluorobenzamide]",1 to 10 µM,
